Patent US11147272B2, “Pyridone compounds and agricultural and horticultural fungicides comprising the same as active ingredients” (MITSUI CHEMICALS AGRO, INC., priority 2017, dated 2021)

Key:
[1] = tested on: Puccinia recondita; experiment: Test Example E: Brown rust on wheat; assay type: in vivo; settings: Brown rust on wheat; control value class
[2] = tested on: Botrytis cinerea; experiment: Test Example B: Gray mold on tomato; settings: Gray mold on tomato; control value class
[3] = tested on: Alternaia brassicicola; experiment: Test Example C: Alternaria sooty spot on cabbage; assay type: in vivo; settings: Alternaria sooty spot on cabbage; control value class
Source text: Seeds of a test plant (cabbage variety: Shikidori) were planted and cultivated until the cotyledons extended.
<Control Value> Control value=100{1−(n/3)}

[4] = tested on: Phytophthora infestans; experiment: whole plant or invertebrate; assay type: in vivo; settings: Late blight on tomato; control value class
[5] = tested on: Colletotrichum orbiculare; experiment: Test Example H: Anthracnose on cucumber; settings: Anthracnose on cucumber; 250 ppm spray, 6 to 10 days after inoculation
[6] = tested on: Magnaporthe grisea; experiment: whole plant or invertebrate; assay type: in vivo; settings: Blast on rice; control value class
[7] = tested on: Plasmopara viticola; experiment: Test Example G: Downy mildew on vine; settings: Downy mildew on vine; 250 ppm spray, 7 to 10 days after inoculation
[8] = tested on: Blumeria graminis f. sp. hordei; experiment: Test Example D: Powdery mildew on barley; settings: Powdery mildew on barley; control value class

Row | Compound | Test E control value [1] | Test B control value [2] | Test C control value [3] | Test F control value [4] | Test H control value [5] | Test A control value [6] | Test G control value [7] | Test D control value [8]
1 | CCc1ccc(=O)n(CC)c1-c1ccc(F)cc1Br [compound 340] | H (more than 50% control value) | H (more than 50% control value) | H (more than 50% control value) | L (50% or less control value) | L (50% or less control value) | L (50% or less control value) | L (50% or less control value) | H (more than 50% control value)
2 | CCCC1=C(c2ccc(F)cc2Br)N(C)C(=O)CC1 [compound 341] | L (50% or less control value) | L (50% or less control value) | L (50% or less control value) | L (50% or less control value) | H (more than 50% control value) | L (50% or less control value) | L (50% or less control value) | L (50% or less control value)
3 | CCc1cc(Cl)c(=O)n(CC)c1-c1ccc(F)cc1Br [compound 342] | H (more than 50% control value) | H (more than 50% control value) | H (more than 50% control value) | L (50% or less control value) | H (more than 50% control value) | H (more than 50% control value) | L (50% or less control value) | H (more than 50% control value)
4 | CCc1cc(Br)c(=O)n(CC)c1-c1ccc(F)cc1Br [compound 343] | H (more than 50% control value) | H (more than 50% control value) | H (more than 50% control value) | L (50% or less control value) | H (more than 50% control value) | H (more than 50% control value) | H (more than 50% control value) | H (more than 50% control value)
5 | CCc1ccc(=O)n(CC)c1-c1ccc(OC)cc1Br [compound 344] | H (more than 50% control value) | H (more than 50% control value) | H (more than 50% control value) | L (50% or less control value) | L (50% or less control value) | L (50% or less control value) | L (50% or less control value) | L (50% or less control value)
6 | CCc1cc(Cl)c(=O)n(CC)c1-c1ccc(OC)cc1Br [compound 345] | H (more than 50% control value) | H (more than 50% control value) | H (more than 50% control value) | L (50% or less control value) | H (more than 50% control value) | H (more than 50% control value) | H (more than 50% control value) | L (50% or less control value)
7 | CCc1cc(Br)c(=O)n(CC)c1-c1ccc(OC)cc1Br [compound 346] | H (more than 50% control value) | H (more than 50% control value) | H (more than 50% control value) | L (50% or less control value) | H (more than 50% control value) | H (more than 50% control value) | H (more than 50% control value) | L (50% or less control value)
8 | CCc1ccc(=O)n(CC)c1-c1ccc(F)cc1C [compound 347] | L (50% or less control value) | H (more than 50% control value) | H (more than 50% control value) | L (50% or less control value) | L (50% or less control value) | L (50% or less control value) | L (50% or less control value) | L (50% or less control value)
9 | CCc1ccc(=O)n(C)c1-c1ccc(F)cc1Br [compound 348] | H (more than 50% control value) | H (more than 50% control value) | L (50% or less control value) | L (50% or less control value) | L (50% or less control value) | L (50% or less control value) | L (50% or less control value) | H (more than 50% control value)
10 | CCc1cc(Cl)c(=O)n(C)c1-c1ccc(F)cc1Br [compound 349] | H (more than 50% control value) | H (more than 50% control value) | H (more than 50% control value) | L (50% or less control value) | L (50% or less control value) | L (50% or less control value) | H (more than 50% control value) | H (more than 50% control value)
11 | CCc1cc(Br)c(=O)n(C)c1-c1ccc(F)cc1Br [compound 350] | H (more than 50% control value) | H (more than 50% control value) | H (more than 50% control value) | L (50% or less control value) | L (50% or less control value) | L (50% or less control value) | H (more than 50% control value) | L (50% or less control value)
12 | CCc1cc(Cl)c(=O)n(CC)c1-c1ccc(F)cc1C [compound 351] | H (more than 50% control value) | H (more than 50% control value) | H (more than 50% control value) | L (50% or less control value) | H (more than 50% control value) | L (50% or less control value) | L (50% or less control value) | H (more than 50% control value)
13 | CCc1cc(Br)c(=O)n(CC)c1-c1ccc(F)cc1C [compound 352] | H (more than 50% control value) | H (more than 50% control value) | H (more than 50% control value) | L (50% or less control value) | H (more than 50% control value) | H (more than 50% control value) | L (50% or less control value) | H (more than 50% control value)
14 | CCc1ccc(=O)n(CC)c1-c1ccc(OC)cc1C [compound 353] | H (more than 50% control value) | L (50% or less control value) | L (50% or less control value) | L (50% or less control value) | L (50% or less control value) | L (50% or less control value) | L (50% or less control value) | H (more than 50% control value)
